≈ marks a conversion by molar mass, not a printed value. Where two headings read alike, the source gives them in different places.
Experiments:
S. haemolyticus = assay: MIC, broth microdilution; type: cell-based; conditions: Staphylococcus haemolyticus
S. aureus = assay: MIC, broth microdilution; type: cell-based; conditions: Staphylococcus aureus
S.pyogenes = assay: MIC, broth microdilution; type: cell-based; conditions: Streptococcus pyogenes
E. faecalis = assay: MIC, broth microdilution; type: cell-based; conditions: Enterococcus faecalis
[1] = test system: a panel of bacteria including MRSA; parameters: method as in PMID 32652783; conditions: earlier work; cited from earlier work
[2] = target: T1, human recombinant cathepsin L (Homo sapiens, UniProt P07711); assay: biochemical; type: biochemical; conditions: read-out: Cathepsin L IC50; pH 5.5, Z-Phe-Arg-AMC substrate
T1 construct: made in house; host or cells: Escherichia coli
T1 sequence (P07711 114-333): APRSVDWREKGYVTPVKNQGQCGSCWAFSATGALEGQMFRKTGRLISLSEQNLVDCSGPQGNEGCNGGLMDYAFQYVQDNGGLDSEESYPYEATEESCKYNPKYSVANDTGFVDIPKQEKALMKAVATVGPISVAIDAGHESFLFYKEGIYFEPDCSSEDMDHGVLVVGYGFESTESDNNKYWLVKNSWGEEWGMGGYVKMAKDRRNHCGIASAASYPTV
Protocol: Cathepsin L inhibition was assessed as reported. Briefly, human recombinant cathepsin L was expressed in Escherichia coli[33]. Enzymatic activity was determined in 100 mM acetate buffer (pH 5.5) containing 0.1% PEG 8000, 5 mM cysteine and 1.5 mM EDTA. The enzyme was first activated in assay buffer for 5 min at 37 °C, after which it was added to the wells of a black microplate containing the Z-Phe-Arg-AMC substrate (Bachem) and compounds. Formation of the fluorescent cleavage product was monitored for 50 min at 37 °C, using a Tecan Infinit M1000 spectrofluorimeter set at 460 nm emission and 380 nm excitation wavelength. All assay mixtures contained 5% (v/v) DMSO and 0.01% Triton X-100 to prevent false-positive inhibition due to formation of compound aggregates. All measurements were performed in triplicate and repeated twice. The relative inhibition was calculated using the equation: Relative inhibition (%) = 100(1 − vi/vo), where vi and vo designate the reaction velocities in the presence and absence of inhibitor, respectively. IC50 values were determined from nine data points at different inhibitor concentrations.

HEL cells = assay: Cytotoxicity in mock-infected HEL cells (MTS); type: cell-based, human; conditions: mock-infected HEL cells, MTS, mean of 2–3 tests
S. epidermidis = assay: microbe, parasite or virus in culture; type: cell-based; conditions: Staphylococcus epidermidis
E. faecium = assay: microbe, parasite or virus in culture; type: cell-based; conditions: Enterococcus faecium
HCoV-229E = conditions: earlier work; read-out: EC50 against human coronavirus 229E (HCoV-229E); cited from earlier work
VeroE6 cells = assay: Cytotoxicity in mock-infected VeroE6 cells (XTT); type: cell-based, African green monkey; conditions: mock-infected Vero E6 cells, three days, XTT

CC(=O)N[C@H]1[C@H](O[C@@H]2c3ccc(c(Cl)c3)Oc3cc4cc(c3O)Oc3ccc(cc3Cl)C[C@H]3NC(=O)[C@H](n5cc(COCCOCCCC(F)(F)C(F)(F)C(F)(F)C(F)(F)F)nn5)c5ccc(O)c(c5)Oc5cc(O)cc(c5)[C@H](NC3=O)C(=O)N[C@H]4C(=O)N[C@H]3C(=O)N[C@@H]2C(=O)N[C@H](C(=O)O)c2cc(O)cc(O)c2-c2cc3ccc2O)O[C@H](CO)[C@@H](O)[C@@H]1O [Compound 2] showed an MIC (S. haemolyticus; S. haemolyticus mecA, 6 strains, read-out: Average MIC value) of 1.9 µg/mL (≈ 1.06 µM), an MIC (S. haemolyticus; S.haemolyticus DALB_R1, mecA, read-out: MIC value) of 4 µg/mL (≈ 2.24 µM) and an MIC (S. haemolyticus; S.haemolyticus DALB_R2, mecA, read-out: MIC value) of 2 µg/mL (≈ 1.12 µM). For the same compound, the MIC (S. haemolyticus; S.haemolyticus DALB_R3, mecA, read-out: MIC value) was 2 µg/mL (≈ 1.12 µM), the MIC (S. haemolyticus; S.haemolyticus DALB_R4, mecA, read-out: MIC value) was 2 µg/mL (≈ 1.12 µM) and the MIC (S. haemolyticus; S.haemolyticus DALB_R5, mecA, read-out: MIC value) was 0.5 µg/mL (≈ 0.28 µM). The MIC (S. haemolyticus; S.haemolyticus ORI_R1, mecA, read-out: MIC value) was 1 µg/mL (≈ 0.559 µM), the MIC (S. aureus; ATCC 29213 / MSSA, read-out: MIC value, S. aureus ATCC29213, MSSA) was 0.0625 µg/mL (≈ 0.0349 µM) and the MIC (S. aureus; MRSA / USA300, read-out: MIC value, S. aureus USA300, CA-MRSA) was 0.25 µg/mL (≈ 0.14 µM). For the same compound, the MIC (S. aureus; MRSA, read-out: Average MIC value, S. aureus CA-MRSA, 1 strain) was 0.25 µg/mL (≈ 0.14 µM), the MIC (S. aureus; MRSA, read-out: Average MIC value, S. aureus MRSA, 7 strains) was 0.285 µg/mL (≈ 0.159 µM) and the MIC (S. aureus; MRSA, read-out: MIC value, S. aureus 73OL, MRSA) was 0.25 µg/mL (≈ 0.14 µM). For the same compound, the MIC (S. aureus; MRSA, read-out: MIC value, S. aureus 214OL, MRSA) was 0.25 µg/mL (≈ 0.14 µM), the MIC (S. aureus; MRSA, read-out: MIC value, S. aureus 1041OL, MRSA) was 0.25 µg/mL (≈ 0.14 µM) and the MIC (S. aureus; MRSA, read-out: MIC value, S. aureus A6918, MRSA) was 0.5 µg/mL (≈ 0.28 µM). It also gave an MIC (S. aureus; MRSA, read-out: MIC value, S. aureus A6919, MRSA) of 0.25 µg/mL (≈ 0.14 µM), an MIC (S. aureus; MRSA, read-out: MIC value, S. aureus Mu50, MRSA) of 0.25 µg/mL (≈ 0.14 µM) and an MIC (S. aureus; MRSA, read-out: MIC value, S. aureus N315, MRSA) of 0.25 µg/mL (≈ 0.14 µM). The MIC (S. aureus; MSSA / NEWMAN, read-out: MIC value, S. aureus Newman, MSSA) was 0.5 µg/mL (≈ 0.28 µM), the MIC (S. aureus; MSSA, read-out: Average MIC value, S. aureus MSSA, 4 strains) was 0.265 µg/mL (≈ 0.148 µM) and the MIC (S. aureus; MSSA, read-out: MIC value, S. aureus MSSA476, MSSA) was 0.25 µg/mL (≈ 0.14 µM). The MIC (S. aureus; MSSA, read-out: MIC value, S. aureus SA564, MSSA) was 0.25 µg/mL (≈ 0.14 µM), the MIC (S.pyogenes; read-out: MIC value, S.pyogenes H232) was 0.0625 µg/mL (≈ 0.0349 µM) and the MIC (S.pyogenes; read-out: MIC value, S.pyogenes H550) was 0.0625 µg/mL (≈ 0.0349 µM). The MIC (S.pyogenes; read-out: MIC value, S.pyogenes H578) was 0.0625 µg/mL (≈ 0.0349 µM), the MIC (E. faecalis; read-out: Average MIC value, E. faecalis VAN^R,TEI^R/VanA, 1 strain) was > 8 µg/mL and the MIC (E. faecalis; read-out: Average MIC value, E. faecalis VAN^S, TEI^S, 2 strains) was 1 µg/mL (≈ 0.559 µM). The MIC (E. faecalis; read-out: MIC value, E.faecalis JH2-2) was 1 µg/mL (≈ 0.559 µM), the MIC (E. faecalis; read-out: MIC value, E.faecalis OG1RF) was 1 µg/mL (≈ 0.559 µM) and the MIC (E. faecalis; read-out: MIC value, E.faecalis V583, VAN,TEI/VanA) was > 8 µg/mL. For the same compound, the “MIC against a panel of bacteria including MRSA” value [1] was 0.5 to 1 µM, the IC50 [2] was 98 ± 1 µM and the CC50 (HEL cells) was > 100 µM. For the same compound, the MIC (S. epidermidis; read-out: Average MIC value, S. epidermidis mecA, 6 strains) was 0.645 µg/mL (≈ 0.361 µM), the MIC (S. epidermidis; read-out: MIC value, S.epidermidis ORI_R1, mecA) was 0.5 µg/mL (≈ 0.28 µM) and the MIC (S. epidermidis; read-out: MIC value, S.epidermidis ORI_R2, mecA) was 0.5 µg/mL (≈ 0.28 µM). For the same compound, the MIC (S. epidermidis; read-out: MIC value, S.epidermidis ORI_R3, mecA) was 0.25 µg/mL (≈ 0.14 µM), the MIC (S. epidermidis; read-out: MIC value, S.epidermidis ORI_R4, mecA) was 0.5 µg/mL (≈ 0.28 µM) and the MIC (S. epidermidis; read-out: MIC value, S.epidermidis TEI_R1, mecA) was 0.125 µg/mL (≈ 0.0699 µM). For the same compound, the MIC (S. epidermidis; read-out: MIC value, S.epidermidis TEI_R2, mecA) was 2 µg/mL (≈ 1.12 µM), the MIC (E. faecium; read-out: Average MIC value, E. faecium VAN^R,TEI^R/VanA, 8 strains) was > 8 µg/mL and the MIC (E. faecium; read-out: Average MIC value, E. faecium VAN^S, TEI^S, 1 strain) was 1 µg/mL (≈ 0.559 µM). For the same compound, the MIC (E. faecium; read-out: MIC value, E.faecium E335, VAN,TEI,LNZ/VanA) was > 8 µg/mL, the MIC (E. faecium; read-out: MIC value, E.faecium E355, VAN,TEI,LNZ/VanA) was > 8 µg/mL and the MIC (E. faecium; read-out: MIC value, E.faecium E832, VAN,TEI,LNZ/VanA) was > 8 µg/mL. For the same compound, the MIC (E. faecium; read-out: MIC value, E.faecium E854, VAN,TEI,LNZ/VanA) was > 8 µg/mL, the MIC (E. faecium; read-out: MIC value, E.faecium E859, VAN,TEI,LNZ/VanA) was > 8 µg/mL and the MIC (E. faecium; read-out: MIC value, E.faecium E1114, VAN,TEI,LNZ/VanA) was > 8 µg/mL. For the same compound, the MIC (E. faecium; read-out: MIC value, E.faecium E1131, VAN,TEI,LNZ/VanA) was > 8 µg/mL, the MIC (E. faecium; read-out: MIC value, E.faecium E1132, VAN,TEI,LNZ/VanA) was > 8 µg/mL and the MIC (E. faecium; read-out: MIC value, E.faecium TX0016) was 1 µg/mL (≈ 0.559 µM). For the same compound, the EC50 (HCoV-229E) was > 100 µM and the CC50 (VeroE6 cells) was > 100 µM.

Source: PMC9511441, “Semisynthetic teicoplanin derivatives with dual antimicrobial activity against SARS-CoV-2 and multiresistant bacteria” (Scientific Reports, 2022)
